Source: PMC8667902 (Journal of Enzyme Inhibition and Medicinal Chemistry, 2021)
Values joined by “and” are separate entries in the source; they are usually repeats but may differ in a detail not shown here. Identical values can stand only once.

What was measured:
ratAChE = target: T1, ratAChE (Rattus norvegicus, UniProt P37136); test: Ellman's method, AChE from rat cortex homogenate; type: biochemical; conditions: ratBuChE over rat AChE
T1 sequence (P37136 32-614): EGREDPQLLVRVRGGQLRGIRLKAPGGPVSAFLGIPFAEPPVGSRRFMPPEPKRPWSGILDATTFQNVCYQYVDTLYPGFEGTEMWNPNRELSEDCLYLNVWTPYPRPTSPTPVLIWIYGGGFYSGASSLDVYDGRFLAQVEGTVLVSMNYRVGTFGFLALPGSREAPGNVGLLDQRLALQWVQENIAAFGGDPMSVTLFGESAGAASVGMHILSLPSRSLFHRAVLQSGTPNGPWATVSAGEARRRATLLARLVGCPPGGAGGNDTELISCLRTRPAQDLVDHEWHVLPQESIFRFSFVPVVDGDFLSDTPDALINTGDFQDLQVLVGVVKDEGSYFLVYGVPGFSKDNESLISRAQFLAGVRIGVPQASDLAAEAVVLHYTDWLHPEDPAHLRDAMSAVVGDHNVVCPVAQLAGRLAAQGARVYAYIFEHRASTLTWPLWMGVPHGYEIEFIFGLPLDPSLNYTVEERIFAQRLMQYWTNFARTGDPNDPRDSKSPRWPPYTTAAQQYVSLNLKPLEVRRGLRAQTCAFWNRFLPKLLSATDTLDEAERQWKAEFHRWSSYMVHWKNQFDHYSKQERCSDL

eeAChE = eeAChE (Electrophorus electricus, UniProt O42275); test: Ellman's method, electric eel AChE; type: biochemical
ratBuChE = ratBuChE (Rattus norvegicus, UniProt Q9JKC1); test: Ellman's method, BuChE from rat serum; type: biochemical
[1] = Oxygen Radicals Absorbance Capacity by Fluorescence
AChE = test: Kinetic characterisation of AChE inhibition; type: biochemical; conditions: Lineweaver-Burk plots, substrate acetylthiocholine
AChE PAS (eeAChE) = AChE PAS (eeAChE) (Electrophorus electricus, UniProt O42275); test: Propidium iodide displacement assay; type: binding, electric eel; conditions: read-out: Propidium iodide displacement from AChE PAS (% inhibition)
[2] = target: huAChE-induced Aβ1–40 aggregation (Homo sapiens, UniProt P22303); test: Inhibition of huAChE-induced Aβ1–40 aggregation; type: biochemical; conditions: compound 100 μM, Aβ1–40 230 μM, Aβ1–40/HuAChE 100/1; ThT; mean ± SEM
Aβ1–42 [3] = target: T2, Aβ1–42 (Homo sapiens, UniProt P05067); test: Inhibition of self-induced Aβ1–42 aggregation; type: biochemical; conditions: read-out: Inhibition of Aβ1–42 aggregation (%) Self-induced, 25 μM; ThT assay
Aβ1–42 [4] = target: T2, Aβ1–42; test: Inhibition of Cu2+-induced Aβ1–42 aggregation; type: biochemical; conditions: read-out: Inhibition of Aβ1–42 aggregation (%) Cu^2+-induced
Aβ1–42 fibrils [5] = target: T3, Aβ1–42 fibrils (Homo sapiens, UniProt P05067); test: Disaggregation of self-induced Aβ1–42 aggregation; type: biochemical; conditions: 25 μM; ThT assay
Aβ1–42 fibrils [6] = target: T3, Aβ1–42 fibrils; test: Disaggregation of Cu2+-induced Aβ1–42 aggregation; type: biochemical; conditions: 25 μM; ThT assay
huMAO-B = target: T4, huMAO-B (Homo sapiens, UniProt P27338); test: biochemical
T4 sequence (P27338 1-520): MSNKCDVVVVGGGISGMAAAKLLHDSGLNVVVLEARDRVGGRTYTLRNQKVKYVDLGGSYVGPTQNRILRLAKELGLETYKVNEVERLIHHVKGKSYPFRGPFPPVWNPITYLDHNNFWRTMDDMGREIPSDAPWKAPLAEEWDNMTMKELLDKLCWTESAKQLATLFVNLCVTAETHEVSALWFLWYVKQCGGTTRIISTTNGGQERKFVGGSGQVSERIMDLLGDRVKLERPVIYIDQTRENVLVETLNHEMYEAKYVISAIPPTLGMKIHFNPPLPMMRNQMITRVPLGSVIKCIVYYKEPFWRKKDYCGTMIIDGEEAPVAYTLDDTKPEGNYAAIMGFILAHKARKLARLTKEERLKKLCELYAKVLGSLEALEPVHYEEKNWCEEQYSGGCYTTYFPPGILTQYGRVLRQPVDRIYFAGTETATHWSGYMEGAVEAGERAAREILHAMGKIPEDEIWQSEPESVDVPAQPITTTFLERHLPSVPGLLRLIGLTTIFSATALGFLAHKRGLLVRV

huMAO-A = target: T5, huMAO-A (Homo sapiens, UniProt P21397); test: huMAO-A inhibition, fluorescence method; type: biochemical
T5 sequence (P21397 1-527): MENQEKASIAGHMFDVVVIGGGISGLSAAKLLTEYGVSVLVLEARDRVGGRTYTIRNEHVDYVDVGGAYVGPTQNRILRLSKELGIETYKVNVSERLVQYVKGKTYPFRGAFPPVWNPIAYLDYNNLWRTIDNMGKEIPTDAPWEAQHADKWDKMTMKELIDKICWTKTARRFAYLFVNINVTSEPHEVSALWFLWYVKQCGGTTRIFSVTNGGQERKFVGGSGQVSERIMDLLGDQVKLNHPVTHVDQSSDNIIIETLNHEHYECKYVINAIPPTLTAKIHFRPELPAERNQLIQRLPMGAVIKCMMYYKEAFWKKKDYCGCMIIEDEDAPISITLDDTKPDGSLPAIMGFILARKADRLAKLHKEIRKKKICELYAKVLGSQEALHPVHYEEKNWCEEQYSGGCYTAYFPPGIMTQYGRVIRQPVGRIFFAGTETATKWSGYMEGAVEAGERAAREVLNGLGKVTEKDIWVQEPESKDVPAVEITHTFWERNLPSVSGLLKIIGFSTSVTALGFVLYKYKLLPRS

[7] = Metal chelation by UV-vis spectrometry and molar ratio method; type: physicochemical
PC12 cells [8] = test: Cytotoxicity in PC12 cells, MTT assay; type: cell-based; conditions: up to 50 µM
PC12 cells [9] = test: Neuroprotection against H2O2-induced PC12 cell injury, LDH assay; type: cell-based; conditions: H2O2 alone 712.7, vehicle 602.3
[10] = 37.5 μM, peak of compound alone: 9d 362 nm, 17f 350 nm

T3 sequence (P05067 672-713): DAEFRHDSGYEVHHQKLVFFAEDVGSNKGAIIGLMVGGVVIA
T2 sequence (P05067 672-713): as above
AChE PAS (eeAChE), sequence (O42275 24-633): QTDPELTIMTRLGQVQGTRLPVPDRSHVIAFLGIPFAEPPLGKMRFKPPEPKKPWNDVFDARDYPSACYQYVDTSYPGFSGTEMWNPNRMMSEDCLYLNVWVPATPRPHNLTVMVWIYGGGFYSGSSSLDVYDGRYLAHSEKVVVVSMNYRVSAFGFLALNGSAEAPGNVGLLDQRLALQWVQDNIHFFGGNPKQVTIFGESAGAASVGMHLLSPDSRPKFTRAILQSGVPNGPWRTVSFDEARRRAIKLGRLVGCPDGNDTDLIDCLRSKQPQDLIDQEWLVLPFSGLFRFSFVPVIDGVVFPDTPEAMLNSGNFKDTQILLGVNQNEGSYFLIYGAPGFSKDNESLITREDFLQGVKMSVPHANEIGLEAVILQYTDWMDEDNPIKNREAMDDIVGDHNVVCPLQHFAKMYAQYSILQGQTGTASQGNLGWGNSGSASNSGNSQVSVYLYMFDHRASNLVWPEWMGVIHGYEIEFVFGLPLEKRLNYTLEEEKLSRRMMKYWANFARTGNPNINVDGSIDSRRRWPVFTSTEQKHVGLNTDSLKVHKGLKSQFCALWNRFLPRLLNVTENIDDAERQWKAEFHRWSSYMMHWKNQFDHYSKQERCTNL
huAChE-induced Aβ1–40 aggregation, sequence (P22303 32-614): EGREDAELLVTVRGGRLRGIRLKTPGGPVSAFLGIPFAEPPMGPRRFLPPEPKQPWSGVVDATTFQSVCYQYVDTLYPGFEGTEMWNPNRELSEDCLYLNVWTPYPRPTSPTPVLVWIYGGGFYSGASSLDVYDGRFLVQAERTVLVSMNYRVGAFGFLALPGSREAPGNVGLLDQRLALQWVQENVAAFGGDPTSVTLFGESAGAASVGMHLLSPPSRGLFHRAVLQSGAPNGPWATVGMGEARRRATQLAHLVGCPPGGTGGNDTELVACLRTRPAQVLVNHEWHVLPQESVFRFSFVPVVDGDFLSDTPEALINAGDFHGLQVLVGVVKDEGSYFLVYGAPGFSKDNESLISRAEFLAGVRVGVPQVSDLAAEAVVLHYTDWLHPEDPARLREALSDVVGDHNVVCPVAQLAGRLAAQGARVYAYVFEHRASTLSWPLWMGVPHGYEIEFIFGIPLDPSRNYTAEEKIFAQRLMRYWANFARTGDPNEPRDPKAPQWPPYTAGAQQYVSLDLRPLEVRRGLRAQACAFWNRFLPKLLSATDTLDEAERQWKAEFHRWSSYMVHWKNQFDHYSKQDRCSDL
eeAChE, sequence (O42275 24-633): as the sequence (O42275 24-633) above
ratBuChE, sequence (Q9JKC1 24-597): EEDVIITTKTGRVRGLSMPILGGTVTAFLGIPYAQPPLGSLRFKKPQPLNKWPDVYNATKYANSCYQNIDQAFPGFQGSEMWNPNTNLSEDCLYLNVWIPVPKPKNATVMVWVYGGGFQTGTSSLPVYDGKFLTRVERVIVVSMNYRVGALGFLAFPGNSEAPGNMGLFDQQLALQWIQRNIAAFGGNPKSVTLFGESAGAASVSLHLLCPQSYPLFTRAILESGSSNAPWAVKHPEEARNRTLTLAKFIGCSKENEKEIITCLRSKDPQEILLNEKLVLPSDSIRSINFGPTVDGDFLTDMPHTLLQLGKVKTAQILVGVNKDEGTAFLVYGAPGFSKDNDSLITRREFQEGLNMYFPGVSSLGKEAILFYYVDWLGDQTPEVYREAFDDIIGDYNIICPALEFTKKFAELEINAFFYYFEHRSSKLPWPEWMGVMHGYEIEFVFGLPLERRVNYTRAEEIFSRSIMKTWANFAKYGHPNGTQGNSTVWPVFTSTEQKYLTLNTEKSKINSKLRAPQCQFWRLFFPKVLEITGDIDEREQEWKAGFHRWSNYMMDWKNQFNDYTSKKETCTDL

CCN(CCCCCCOc1ccc(/C=C/C(=O)c2c(O)cc(OC)c(O)c2OC)cc1)Cc1ccccc1OC [Compound 17f, (E)-1-(3,6-dihydroxy-2,4-dimethoxyphenyl)-3-(4-((6-(ethyl(2-methoxybenzyl)amino)hexyl)oxy)phenyl)prop-2-en-1-one]
SI = Selectivity index = IC50 (BuChE)/IC50 (AChE) (ratAChE): >1219.5 | IC50 (eeAChE): 1.88 ± 0.01 µM | IC50 (ratBuChE): > 500 µM | ORAC ([1]; Trolox as reference): 3.3 ± 0.01 μM of Trolox equivalent/μM of compounds | ORAC-FL value ([1]; Trolox equivalents): 3.3 eq | type of AChE inhibition (AChE): mixed-type AChE inhibition | inhibition at 10 µM (AChE PAS (eeAChE)): 23.9 ± 1.6% | inhibition at 50 µM (AChE PAS (eeAChE)): 34.2 ± 2.3% | % Inhibition of huAChE-induced Aβ aggregation [2]: 53.9 ± 3.7% | inhibition at 25 µM (Aβ1–42 [3]): 78 ± 0.02% | inhibition at 25 µM (Aβ1–42 [4]): 93.5 ± 0.01% | Disaggregation of Aβ1–42 aggregation (%) Self-induced (Aβ1–42 fibrils [5]): 72.3% and 72.3 ± 0.06% | Disaggregation of Aβ1–42 aggregation (%) Cu^2+-induced (Aβ1–42 fibrils [6]): 84.5% and 84.5 ± 0.35% | IC50 (huMAO-B): 8.8 ± 0.06 µM | SI = selectivity index = IC50 (hMAO-A)/IC50 (hMAO-B) (huMAO-B): 4.3 | IC50 (huMAO-A): 37.5 ± 0.35 µM | shift of characteristic UV peak after adding FeSO4 and ZnCl2 ([7]; 37.5 μM): no significant shift | mole fraction at break (molar ratio method, compound-Cu^2+) ([7]; 37.5 μM compound, ascending CuCl2): 1.03 | characteristic UV peak after adding AlCl3 (red shift) [7, 10]: 370 nm | characteristic UV peak after adding CuCl2 (red shift) [7, 10]: 422 nm | cytotoxicity in PC12 cells (PC12 cells [8]): did not show obvious cytotoxicity | LDH vitality (PC12 cells [9]; PC12, 100 µM H2O2, compound 10 µM): 621.3 | LDH vitality (PC12 cells [9]; PC12, 100 µM H2O2, compound 50 µM): 549.7 | Papp (PAMPA-BBB; PAMPA): 4.23 ± 0.37 ×10⁻⁶ cm/s | Prediction (BBB penetration) (PAMPA-BBB; PAMPA-BBB): CNS+ (Pe (×10^−6 cm/s) > 3.44 × 10^−6 cm/s possess high BBB permeation)
